According to article PMC6292454 (Biochemical Journal, 2018):
Like-named read-outs stand apart in the source and are kept apart here.

Tests used:
[1] = molecular target: T1, NA2009wt (recombinant neuraminidase) (Influenza A virus, UniProt C3W6G3); experiment: biochemical; assay type: biochemical, A/California/07/2009 (H1N1) influenza virus; conditions: for Ki values, fluorometric assay, as described in the text / decrease in potency relative to oseltamivir carboxylate (4): pH 6.15; for Ki values, fluorometric assay, as described in the text: units given in the value; for decrease in potency relative to oseltamivir carboxylate (4): fluorometric assay
[2] = molecular target: T1, NA2009wt (recombinant neuraminidase); experiment: biochemical; assay type: binding, A/California/07/2009 (H1N1) influenza virus

SMILES | Ki values, fluorometric assay, as described in the text [1] | Ki [1] | Ki [2] | decrease in potency relative to oseltamivir carboxylate (4) [1]
CCC(CC)O[C@@H]1C=C(C(=O)O)C[C@H](N[C@@H](CC(=O)O)C(=O)O)[C@H]1NC(C)=O (mixture of isomers) [compound 10] | micromolar range | – | – | –
CCC(CC)O[C@@H]1C=C(P(=O)(O)O)C[C@H](N)[C@H]1NC(C)=O [compound 2, tamiphosphor, reference compound] | – | 26 ± 4 nM | 52 ± 9 nM | –
CCC(CC)O[C@@H]1C=C(C(=O)O)C[C@H](N[C@@H](C)C(=O)O)[C@H]1NC(C)=O [compound 8] | – | 15 ± 2 nM | 170 ± 60 nM | comparable to that of oseltamivir carboxylate
CCC(CC)O[C@@H]1C=C(C(=O)O)C[C@H](N[C@H](C)C(=O)O)[C@H]1NC(C)=O [compound 9] | – | 250 ± 40 nM | 960 ± 260 nM | ~10 fold
CCC(CC)O[C@@H]1C=C(C(=O)O)C[C@H](NC(=O)COCCOCCOC)[C@H]1NC(C)=O [compound 11] | micromolar range | – | – | –
